Experimental data from the supplement of paper PMC10307832.

Assays:
Experiment in all cases: relative viability (nuclei count vs DMSO), 5 days (fraction); higher = more cells survive
[1] = compound: CS(=O)(=O)N1CCN(Cc2cc3nc(-c4cccc5[nH]ncc45)nc(N4CCOCC4)c3s2)CC1 [Pictilisib] + COc1cccc2cc(-c3nc([C@H]4CC[C@H](C(=O)O)CC4)n4ncnc(N)c34)[nH]c12 [OSI-027] (partner 0.5 µM)
Procedure, shortened: (§1)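 Lung cancer cell lines, seeded in 1536-well plates, were treated the following day by pin tool with a single drug or with five library-drug doses (not always all listed) in √10 steps on top of a fixed anchor-drug dose. Cells were fixed and nuclei stained in one step after 5 days, and nuclei were counted. Relative viability is the nuclei count for treated wells divided by that for vehicle wells, reported as medians of duplicate plates.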

[2] = compound: NC1(c2ccc(-c3nc4ccn5c(=O)[nH]nc5c4cc3-c3ccccc3)cc2)CCC1 [MK-2206] + Cc1nc(NC(=O)N2CCC[C@H]2C(N)=O)sc1-c1ccnc(C(C)(C)C(F)(F)F)c1 [Alpelisib] (partner 2 µM)
Procedure, shortened: as §1

[3] = compound: NC1(c2ccc(-c3nc4ccn5c(=O)[nH]nc5c4cc3-c3ccccc3)cc2)CCC1 [MK-2206] + Cc1nc(Nc2ncc(C(=O)Nc3c(C)cccc3Cl)s2)cc(N2CCN(CCO)CC2)n1 [Dasatinib] (partner 0.075 µM)
Procedure, shortened: as §1

[4] = compound: NC1(c2ccc(-c3nc4ccn5c(=O)[nH]nc5c4cc3-c3ccccc3)cc2)CCC1 [MK-2206] + COc1cc2c(Oc3ccc(NC(=O)C4(C(=O)Nc5ccc(F)cc5)CC4)cc3F)ccnc2cc1OCCCN1CCOCC1 [Foretinib] (partner 0.25 µM)
Procedure, shortened: as §1

**Q.** With 201T as the cell line, how does the relative viability ([1]; first compound 0.02 µM) read?
**A.** 0.757

**Q.** What about the relative viability ([1]; first compound 0.06325 µM) of the same cell line?
**A.** 0.683

**Q.** What about the relative viability ([1]; first compound 0.6325 µM) of the same cell line?
**A.** 0.503

**Q.** And the relative viability ([1]; first compound 2 µM)?
**A.** 0.281

**Q.** And the relative viability ([2]; first compound 0.01 µM)?
**A.** 0.97

**Q.** What about the relative viability ([2]; first compound 0.03162 µM) of the same cell line?
**A.** 1.05

**Q.** What about the relative viability ([2]; first compound 0.3162 µM) of the same cell line?
**A.** 0.958

**Q.** What about the relative viability ([2]; first compound 1 µM) of the same cell line?
**A.** 0.958

**Q.** And the relative viability ([3]; first compound 0.01 µM)?
**A.** 0.623

**Q.** And the relative viability ([3]; first compound 0.03162 µM)?
**A.** 0.581

**Q.** And the relative viability ([3]; first compound 0.3162 µM)?
**A.** 0.553

**Q.** And the relative viability ([3]; first compound 1 µM)?
**A.** 0.525

**Q.** And the relative viability ([4]; first compound 0.01 µM)?
**A.** 1.1

**Q.** What about the relative viability ([4]; first compound 0.03162 µM) of the same cell line?
**A.** 1.2

**Q.** What about the relative viability ([4]; first compound 0.3162 µM) of the same cell line?
**A.** 1.13

**Q.** What about the relative viability ([4]; first compound 1 µM) of the same cell line?
**A.** 1.1

**Q.** With HCC-15 as the cell line, how does the relative viability ([1]; first compound 0.02 µM) read?
**A.** 0.693

**Q.** What about the relative viability ([1]; first compound 0.06325 µM) of the same cell line?
**A.** 0.641

**Q.** What about the relative viability ([1]; first compound 0.6325 µM) of the same cell line?
**A.** 0.407

**Q.** And the relative viability ([1]; first compound 2 µM)?
**A.** 0.32

**Q.** What about the relative viability ([2]; first compound 0.01 µM) of the same cell line?
**A.** 0.836

**Q.** And the relative viability ([2]; first compound 0.03162 µM)?
**A.** 0.884

**Q.** What about the relative viability ([2]; first compound 0.3162 µM) of the same cell line?
**A.** 0.859

**Q.** What about the relative viability ([2]; first compound 1 µM) of the same cell line?
**A.** 0.832

**Q.** And the relative viability ([3]; first compound 0.01 µM)?
**A.** 0.578

**Q.** What about the relative viability ([3]; first compound 0.03162 µM) of the same cell line?
**A.** 0.643

**Q.** And the relative viability ([3]; first compound 0.3162 µM)?
**A.** 0.442

**Q.** What about the relative viability ([3]; first compound 1 µM) of the same cell line?
**A.** 0.422

**Q.** And the relative viability ([4]; first compound 0.01 µM)?
**A.** 0.971

**Q.** What about the relative viability ([4]; first compound 0.03162 µM) of the same cell line?
**A.** 1.04

**Q.** What about the relative viability ([4]; first compound 0.3162 µM) of the same cell line?
**A.** 0.958

**Q.** And the relative viability ([4]; first compound 1 µM)?
**A.** 0.892
